Data taken from patent US7772271B2 (priority 2004, dated 2010).

First: C[C@@H](OC(=O)Nc1ccc(-c2c(C#N)c3ccc(-c4ncccc4[N+](=O)[O-])cc3n2C2CCC2)cc1)C1CC1 [Compound 3247]
Second: C[C@@H](OC(=O)Nc1ccc(-c2c(C#N)c3ccc(-c4cc(N(C)C)ccn4)cc3n2C2CCC2)cc1)C1CC1 [Compound 3259]
The melting point of the first is lower: 199 to 201 °C for the first, 203 to 208 °C for the second.

First: CCCS(=O)(=O)Nc1ccc(-c2c(C#N)c3ccc(Oc4nccnc4C#N)cc3n2CC2CC2)c(C)c1 [Compound 3248]
Second: CCCS(=O)(=O)Nc1ccc(-c2c(C#N)c3ccc(Oc4nccnc4C#N)cc3n2CC2CC2)c(Cl)c1 [Compound 3307]
The melting point of the first is lower: 238 to 241 °C for the first, 243 to 246 °C for the second.

First: CCCS(=O)(=O)Nc1ccc(-c2c(C#N)c3ccc(Oc4ncccc4C#N)cc3n2CC2CC2)c(C)c1 [Compound 3249]
Second: CCCS(=O)(=O)Nc1ccc(-c2c(C#N)c3ccc(Oc4ncccc4C#N)cc3n2CC2CC2)c(Cl)c1 [Compound 3306]
The melting point of the first is higher: 235 to 239 °C for the first, 218 to 220 °C for the second.

First: CCCS(=O)(=O)Nc1ccc(-c2c(C#N)c3ccc(Oc4ncccc4C#N)cc3n2CC2CC2)cc1 [Compound 3250]
Second: CCCS(=O)(=O)Nc1ccc(-c2c(C#N)c3ccc(Oc4ncccc4C#N)cc3n2C2CC2)c(C)c1 [Compound 3304]
The melting point of the first is higher: 232 to 235 °C for the first, 222 to 226 °C for the second.

First: N#Cc1c(-c2ccc(Nc3ncccn3)cc2)n(CC2CC2)c2cc(OCCF)ccc12 [Compound 3251]
Second: CCOc1ccc2c(C#N)c(-c3ccc(Nc4ncccn4)cc3)n(CC3CC3)c2c1 [Compound 3252]
The melting point of the first is lower: 212 to 213 °C for the first, 223 to 224 °C for the second.

First: Cc1nccnc1Oc1ccc2c(c1)c(C#N)c(-c1ccc(NC(=O)O[C@H](C)C3CC3)cc1)n2C1CCC1 [Compound 3254]
Second: C[C@@H](OC(=O)Nc1ccc(-c2c(C#N)c3cc(Oc4nccnc4Cl)ccc3n2C2CCC2)cc1)C1CC1 [Compound 3255]
The melting point of the first is higher: 214 to 215 °C for the first, 209 to 211 °C for the second.

First: C[C@@H](OC(=O)Nc1ccc(-c2c(C#N)c3cc(Oc4ncccc4C#N)ccc3n2C2CCC2)cc1)C1CC1 [Compound 3256]
Second: C[C@@H](OC(=O)Nc1ccc(-c2c(C#N)c3ccc(Oc4ncccc4C#N)cc3n2C2CC2)cc1)C1CC1 [Compound 3263]
The melting point of the first is higher: 217 to 218 °C for the first, 183 to 185 °C for the second.

First: Cc1cccc(Oc2ccc3c(c2)c(C#N)c(-c2ccc(NC(=O)O[C@H](C)C4CC4)cc2)n3C2CCC2)n1 [Compound 3257]
Second: C[C@@H](OC(=O)Nc1ccc(-c2c(C#N)c3ccc(-n4ccccc4=O)cc3n2C2CCC2)cc1)C1CC1 [Compound 3315]
The melting point of the first is lower: 205 to 208 °C for the first, 237 to 238 °C for the second.

Compared with `C[C@@H](OC(=O)Nc1ccc(-c2c(C#N)c3ccc(-c4cccc(N5CCCC5)n4)cc3n2C2CCC2)cc1)C1CC1` [Compound 3258], `C[C@@H](OC(=O)Nc1ccc(-c2c(C#N)c3ccc(OCCN4CCCC4=O)cc3n2C2CCC2)cc1)C1CC1` [Compound 3266] is lower in melting point: 250 to 252 °C for the first, 159 to 162 °C for the second.

First: N#Cc1c(-c2ccc(NC(=O)OC3CCS(=O)(=O)CC3)cc2)n(C2CCC2)c2cc(Oc3ncccn3)ccc12 [Compound 3267]
Second: N#Cc1c(-c2ccc(NC(=O)OC3CCS(=O)(=O)CC3)cc2)n(C2CC2)c2cc(Oc3ncccn3)ccc12 [Compound 3269]
The melting point of the first is lower: 181 to 212 °C for the first, 240 to 246 °C for the second.

Compared with `Cc1csc(Nc2ccc(-c3c(C#N)c4ccc(Oc5ncccn5)cc4n3C3CC3)cc2)n1` [Compound 3268], `Cc1csc(Nc2ccc(-c3c(C#N)c4ccc(Oc5ncccc5F)cc4n3C3CC3)cc2)n1` [Compound 3270] is lower in melting point: 223 to 225 °C for the first, 193 to 195 °C for the second.

`C[C@@H](OC(=O)Nc1ccc(-c2c(C#N)c3ccc(OCCN4C(=O)CCC4=O)cc3n2C2CCC2)cc1)C1CC1` [Compound 3271] and `C[C@@H](OC(=O)Nc1ccc(-c2c(C#N)c3ccc(OCCN4C(=O)CN(C)C4=O)cc3n2C2CCC2)cc1)C1CC1` [Compound 3272] cannot be ordered by melting point: 80 to 83 °C for the first, 79 to 81 °C for the second.

Compared with `CCCS(=O)(=O)Nc1ccc(-c2c(C#N)c3ccc(Oc4ncccc4C#N)cc3n2C2CCC2)c(C)c1` [Compound 3273], `CCCS(=O)(=O)Nc1ccc(-c2c(C#N)c3ccc(Oc4nccnc4C#N)cc3n2C2CCC2)c(C)c1` [Compound 3274] is lower in melting point: 227 to 230 °C for the first, 222 to 225 °C for the second.

Compared with `C[C@H](NS(=O)(=O)Nc1ccc(-c2c(C#N)c3ccc(Oc4nccnc4C#N)cc3n2C2CCC2)cc1)C1CC1` [Compound 3276], `N#Cc1nccnc1Oc1ccc2c(C#N)c(-c3ccc(NS(=O)(=O)C4CCC4)cc3)n(CC3CC3)c2c1` [Compound 3295] is higher in melting point: 209 to 212 °C for the first, 236 to 238 °C for the second.

First: CC(C)OC(=O)Nc1ccc(-c2c(C#N)c3ccc(-n4ccccc4=O)cc3n2C2CCC2)cc1 [Compound 3277]
Second: C[C@@H](OC(=O)Nc1ccc(-c2c(C#N)c3ccc(-n4ccccc4=O)cc3n2C2CCC2)cc1)C(F)(F)F [Compound 3316]
The melting point of the first is higher: 267 to 268.5 °C for the first, 244 to 245 °C for the second.

First: CC(C)OC(=O)Nc1ccc(-c2cc3ccc(Oc4nccnc4C#N)cc3n2CC2CC2)cc1 [Compound 3282]
Second: C[C@@H](OC(=O)Nc1ccc(-c2cc3ccc(Oc4nccnc4C#N)cc3n2CC2CC2)cc1)C1CC1 [Compound 3283]
The melting point of the first is higher: 181 to 182 °C for the first, 145 to 147 °C for the second.

First: C[C@@H](OC(=O)Nc1ccc(-c2cc3ccc(Oc4nccnc4C#N)cc3n2CC2CC2)cc1)C(F)(F)F [Compound 3284]
Second: C[C@@H](OC(=O)Nc1ccc(-c2c(C#N)c3ccc(Oc4ncccn4)cc3n2C2CCC2)cn1)C(F)(F)F [Compound 3322]
The melting point of the first is lower: 99 to 101 °C for the first, 227 to 229 °C for the second.

First: Cc1cc(Nc2ccc(-c3c(C#N)c4ccc(Oc5nccnc5C#N)cc4n3C3CCC3)cc2)n(C)n1 [Compound 3286]
Second: Cc1ccnc(Oc2ccc3c(C#N)c(-c4ccc(Nc5cc(C)nn5C)cc4)n(C4CCC4)c3c2)n1 [Compound 3287]
The melting point of the first is higher: 233 to 235 °C for the first, 166 to 168 °C for the second.

First: CCCS(=O)(=O)Nc1ccc(-c2c(C#N)c3ccc(Oc4nccnc4C#N)cc3n2C2CCC2)cc1C [Compound 3288]
Second: Cc1cc(-c2c(C#N)c3ccc(Oc4nccnc4C#N)cc3n2C2CCC2)ccc1NS(=O)(=O)CC(C)C [Compound 3289]
The melting point of the first is higher: 215 to 217 °C for the first, 177 to 178 °C for the second.

Compared with `CCCS(=O)(=O)Nc1ccc(-c2c(C#N)c3ccc(Oc4ncccc4C#N)cc3n2C2CCC2)cc1C` [Compound 3290], `CCCS(=O)(=O)Nc1ccc(-c2c(C#N)c3ccc(Oc4nc(C)ccc4C#N)cc3n2C2CCC2)cc1` [Compound 3309] is higher in melting point: 176 to 180 °C for the first, 219 to 221 °C for the second.

Compared with `N#Cc1c(-c2ccc(NCC(F)F)cc2)n(C2CCC2)c2ccc(OCC(F)F)cc12` [Compound 3292], `CCCS(=O)(=O)Nc1ccc(-c2c(C#N)c3ccc(OCCCN4C(=O)CCC4=O)cc3n2C2CCC2)cc1` [Compound 3296] is higher in melting point: 159 to 161 °C for the first, 215 to 216 °C for the second.

First: CCCS(=O)(=O)Nc1ccc(-c2c(C#N)c3ccc(OCCCN4C(=O)CN(C)C4=O)cc3n2C2CCC2)cc1 [Compound 3299]
Second: CCCS(=O)(=O)Nc1ccc(-c2c(C#N)c3ccc(Oc4ncccc4C(C)=O)cc3n2C2CCC2)cc1 [Compound 3311]
The melting point of the first is lower: 178 to 179 °C for the first, 191 to 194 °C for the second.

Compared with `CN(C)/C=N/c1ccc(-c2c(C#N)c3ccc(Oc4ncccn4)cc3n2C2CCC2)cc1Cl` [Compound 3300], `CC(C)Nc1ccc(-c2c(C#N)c3ccc(Oc4ncccn4)cc3n2C2CCC2)cn1` [Compound 3312] is lower in melting point: 215 to 216 °C for the first, 206 to 208 °C for the second.

Compared with `CCCS(=O)(=O)Nc1ccc(-c2c(C#N)c3ccc(Oc4cnccc4C#N)cc3n2CC2CC2)c(C)c1` [Compound 3303], `CCCS(=O)(=O)Nc1ccc(-c2c(C#N)c3ccc(Oc4nccnc4C#N)cc3n2C2CC2)c(C)c1` [Compound 3305] is higher in melting point: 138 to 142 °C for the first, 225 to 228 °C for the second.

First: CCCS(=O)(=O)Nc1ccc(-c2c(C#N)c3ccc(Oc4ncccc4C(=O)OCC)cc3n2C2CCC2)cc1 [Compound 3308]
Second: Cc1cc(NC(=O)O[C@H](C)C2CC2)ccc1-c1c(C#N)c2ccc(Oc3ncccc3C#N)cc2n1C1CCC1 [Compound 3333]
The melting point of the first is higher: 138 to 142 °C for the first, 108 to 115 °C for the second.

First: N#Cc1c(-c2ccc(NC3CC3)nc2)n(C2CCC2)c2cc(Oc3ncccn3)ccc12 [Compound 3313]
Second: N#Cc1c(-c2cnc(NC3CC3)nc2)n(C2CCC2)c2cc(Oc3ncccn3)ccc12 [Compound 3328]
The melting point of the first is higher: 244 to 246 °C for the first, 227 to 229 °C for the second.

First: C[C@H](NS(=O)(=O)Nc1ccc(-c2c(C#N)c3ccc(N4CCOCC4)cc3n2C2CCC2)cc1)C1CC1 [Compound 3314]
Second: N#Cc1c(-c2cnc(NC3CCCCC3)nc2)n(C2CCC2)c2cc(Oc3ncccn3)ccc12 [Compound 3331]
The melting point of the first is lower: 198 to 199 °C for the first, 217 to 218 °C for the second.

First: CC(C)NC(=O)Nc1ccc(-c2c(C#N)c3ccc(Oc4ncccn4)cc3n2C2CCC2)cc1C#N [Compound 3325]
Second: CC(C)Nc1ncc(-c2c(C#N)c3ccc(Oc4ncccn4)cc3n2C2CCC2)cn1 [Compound 3327]
The melting point of the first is lower: 173 to 181 °C for the first, 213 to 215 °C for the second.

First: O=S1(=O)CCCN1c1ccc(-c2cc3ccc(Oc4ncccn4)cc3n2CC2CC2)cc1 [Compound 3326]
Second: N#Cc1c(-c2cnc(NC3CCC3)nc2)n(C2CCC2)c2cc(Oc3ncccn3)ccc12 [Compound 3329]
The melting point of the first is lower: 98 to 99 °C for the first, 237 to 238 °C for the second.

Compound `N#Cc1c(-c2cnc(NC3CCCC3)nc2)n(C2CCC2)c2cc(Oc3ncccn3)ccc12` [Compound 3330] has a melting point of 230 to 231 °C.

In the case of `C[C@@H](OC(=O)Nc1ccc(-c2c(C#N)c3ccc(Oc4nccnc4C#N)cc3n2C2CC2)cc1)C1CC1` [Compound 3262], the melting point is reported as 223 °C (dec.).
For `C[C@H](NS(=O)(=O)Nc1ccc(-c2c(C#N)c3ccc(Oc4ncccc4C#N)cc3n2C2CCC2)cc1)C1CC1` [Compound 3275], the melting point was 130 °C (dec.).
For `Cc1noc(C)c1-c1ccc2c(C#N)c(-c3ccc(NC(=O)O[C@H](C)C4CC4)cc3)n(C3CCC3)c2c1` [Compound 3317], the melting point was 225 °C (dec.).
For `C[C@@H](OC(=O)Nc1ccc(-c2c(C#N)c3ccc(N4CCS4(=O)=O)cc3n2C2CCC2)cc1)C1CC1` [Compound 3318], the melting point was 235 °C (dec.).
In the case of `C[C@@H](OC(=O)Nc1ccc(-c2c(C#N)c3ccc(N4CCCC4=O)cc3n2C2CCC2)cc1)C1CC1` [Compound 3332], the melting point is reported as 140 °C (dec.).
